Assay results taken from ChEMBL document CHEMBL1201862, “PubChem BioAssay data set” (2004).
Calls of active or inactive are those of the source.

What was measured:
[1] = target: T1, Bcl-2-related protein A1 (Mus musculus, UniProt Q07440); assay type: functional;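 further: confirmatory dose–response counterscreen on Bfl-1, used to check hits from a UBC13 polyubiquitin inhibitor campaign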
T1 sequence (Q07440 whole entry): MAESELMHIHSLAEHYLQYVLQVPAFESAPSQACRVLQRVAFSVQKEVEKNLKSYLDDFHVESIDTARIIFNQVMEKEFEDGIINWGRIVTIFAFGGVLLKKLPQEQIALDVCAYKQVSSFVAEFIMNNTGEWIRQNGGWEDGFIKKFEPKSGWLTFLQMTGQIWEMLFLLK

[2] = target: T2, Ubiquitin-conjugating enzyme E2 N (Homo sapiens, UniProt P61088); assay type: functional
T2 sequence (P61088 whole entry): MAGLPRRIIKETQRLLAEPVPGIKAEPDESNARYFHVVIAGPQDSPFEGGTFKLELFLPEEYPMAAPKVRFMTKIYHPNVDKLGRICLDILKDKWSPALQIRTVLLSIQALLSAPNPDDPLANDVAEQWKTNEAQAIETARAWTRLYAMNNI

[3] = target: T2, Ubiquitin-conjugating enzyme E2 N; assay type: functional; remark: listed apart in the source
[4] = A cytotoxicity screen of small molecule inhibitors of the PhoP region in Salmonella typhi identified in the primary screen. [Related pubchem assays: 1850, 1864, 1985 ]; assay type: functional
[5] = inhibitors of intracellular T. cruzi replication, confirmation, NIH3T3 host cells, beta-gal luminescence (AID 2044); assay type: functional, cell-based;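 further: intracellular parasites grown in NIH/3T3 mouse fibroblasts as host cells; luminescent beta-galactosidase reporter signal from transgenic T. cruzi replicating inside host cells; inhibitors lower the luminescence signal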
[6] = cytotoxicity toward NIH3T3 fibroblasts, dose response, counter-screen, cell-based, ATP luminescence, mouse fibroblasts (AID 2010); assay type: functional;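 further: cells exposed to compound for about 90 hours before reading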
[7] = target: Cytochrome P450 3A4 (Homo sapiens, UniProt P08684); settings: Potency;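 further: confirmatory qHTS run detecting inhibitors and substrates of CYP3A4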
Sequence of Cytochrome P450 3A4 (P08684 whole entry): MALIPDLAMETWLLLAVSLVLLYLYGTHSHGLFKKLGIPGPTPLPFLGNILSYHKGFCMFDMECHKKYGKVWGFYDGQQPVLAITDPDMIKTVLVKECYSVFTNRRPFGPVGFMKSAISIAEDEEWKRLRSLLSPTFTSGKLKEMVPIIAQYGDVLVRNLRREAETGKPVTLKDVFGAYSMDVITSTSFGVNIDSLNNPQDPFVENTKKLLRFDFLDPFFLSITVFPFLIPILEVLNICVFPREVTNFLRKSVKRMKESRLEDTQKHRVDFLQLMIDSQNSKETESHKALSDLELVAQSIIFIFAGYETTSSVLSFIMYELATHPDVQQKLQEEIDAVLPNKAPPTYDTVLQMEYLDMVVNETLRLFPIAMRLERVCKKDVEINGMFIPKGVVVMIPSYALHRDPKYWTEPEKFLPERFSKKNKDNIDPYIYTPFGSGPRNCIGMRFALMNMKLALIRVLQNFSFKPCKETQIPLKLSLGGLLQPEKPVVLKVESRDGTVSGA

[8] = target: SUMO-activating enzyme (Homo sapiens, UniProt Q9UBT2); assay: SUMOylation inhibitor hit validation, confirmation, SUMOylation inhibitor project, biochemical, AlphaScreen (AID 2018); assay type: functional
Sequence of SUMO-activating enzyme (Q9UBE0 whole entry): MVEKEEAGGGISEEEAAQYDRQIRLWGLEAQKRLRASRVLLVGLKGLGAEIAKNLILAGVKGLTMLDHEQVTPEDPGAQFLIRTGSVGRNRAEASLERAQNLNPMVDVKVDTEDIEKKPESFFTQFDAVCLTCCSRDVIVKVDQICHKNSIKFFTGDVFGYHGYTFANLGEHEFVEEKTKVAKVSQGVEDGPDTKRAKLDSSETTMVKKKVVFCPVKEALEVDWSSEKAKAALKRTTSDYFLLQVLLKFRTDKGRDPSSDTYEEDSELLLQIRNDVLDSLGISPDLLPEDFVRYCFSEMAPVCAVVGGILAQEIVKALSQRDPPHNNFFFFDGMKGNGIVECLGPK
Sequence of SUMO-activating enzyme (Q9UBT2 whole entry): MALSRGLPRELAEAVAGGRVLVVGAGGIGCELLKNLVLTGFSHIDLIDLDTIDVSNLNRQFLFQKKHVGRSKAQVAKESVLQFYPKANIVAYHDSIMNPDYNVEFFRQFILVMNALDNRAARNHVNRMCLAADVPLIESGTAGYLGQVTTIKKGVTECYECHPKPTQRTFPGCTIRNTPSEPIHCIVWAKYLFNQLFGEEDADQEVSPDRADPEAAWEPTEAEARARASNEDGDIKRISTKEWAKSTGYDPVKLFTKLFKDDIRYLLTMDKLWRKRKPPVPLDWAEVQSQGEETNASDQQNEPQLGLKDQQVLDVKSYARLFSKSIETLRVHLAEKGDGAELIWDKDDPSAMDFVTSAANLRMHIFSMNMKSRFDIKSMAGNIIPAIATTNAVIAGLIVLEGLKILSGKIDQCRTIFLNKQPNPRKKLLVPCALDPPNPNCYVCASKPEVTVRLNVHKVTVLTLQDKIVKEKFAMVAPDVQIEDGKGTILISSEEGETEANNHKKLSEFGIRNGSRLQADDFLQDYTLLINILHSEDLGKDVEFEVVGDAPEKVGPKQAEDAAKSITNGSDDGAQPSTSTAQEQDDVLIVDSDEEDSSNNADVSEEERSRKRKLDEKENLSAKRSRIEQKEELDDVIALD

[9] = target: T3, Coagulation factor XII (Homo sapiens, UniProt P00748); assay type: functional;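 further: activated factor XIIa alpha cleaving a fluorogenic AMC peptide substrate; inhibitor potency from loss of enzyme activity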
T3 sequence (P00748 whole entry): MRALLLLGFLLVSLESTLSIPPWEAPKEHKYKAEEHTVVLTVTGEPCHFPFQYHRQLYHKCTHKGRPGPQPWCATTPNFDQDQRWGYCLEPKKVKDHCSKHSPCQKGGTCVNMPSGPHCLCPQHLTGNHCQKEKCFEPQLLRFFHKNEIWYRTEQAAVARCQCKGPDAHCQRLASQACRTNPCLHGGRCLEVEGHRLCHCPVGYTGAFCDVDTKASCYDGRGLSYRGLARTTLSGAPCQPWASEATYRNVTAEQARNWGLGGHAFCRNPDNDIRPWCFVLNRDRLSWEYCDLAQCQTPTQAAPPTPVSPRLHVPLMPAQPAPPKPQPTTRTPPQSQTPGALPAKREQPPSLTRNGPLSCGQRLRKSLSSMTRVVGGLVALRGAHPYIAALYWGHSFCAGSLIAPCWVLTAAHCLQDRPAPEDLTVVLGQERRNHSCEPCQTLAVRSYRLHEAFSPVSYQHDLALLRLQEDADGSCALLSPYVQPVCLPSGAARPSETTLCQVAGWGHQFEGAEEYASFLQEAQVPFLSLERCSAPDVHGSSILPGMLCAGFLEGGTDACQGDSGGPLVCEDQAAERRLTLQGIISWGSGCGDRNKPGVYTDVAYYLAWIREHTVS

[10] = HEp-2 cell cytotoxicity, dose response, cytotoxicity control for RSV inhibitor project, HTS (AID 2410); assay type: functional; settings: human respiratory syncytial virus
[11] = test system: H9c2; assay: cells; assay type: functional, cell-based; settings: Rattus norvegicus, H9c2, Myocardium;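 further: confirmatory concentration-response retest of ultra-high-throughput screening hits for modulation of myocardial damage; cell death induced by hydrogen peroxide oxidative stress; compound pretreatment for 60 min then peroxide exposure for 2 h; potency is for protecting the cells against peroxide damage rather than for killing them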
[12] = test system: HEK293; assay: cells; settings: Homo sapiens
[13] = test system: HEK293; assay: cells; settings: Homo sapiens; remark: listed apart in the source
[14] = Luminescence Cell-Based Dose Response to Identify Activators of 5'UTR Stem-Loop Driven Prion Protein mRNA Translation in H4-C Neuroglioblastoma Cells. [Related pubchem assays: 1829 (Project Summary), 1814 (Primary HTS)]; assay type: functional
[15] = Luminescence Cell-Based Dose Response HTS to Identify Activators of Luciferase Translation or Activity in H4 […] Cells. [Related pubchem assays: 1829 (Project Summary), 1814 (Primary HTS)]; assay type: functional
[16] = test system: H4; assay: Luminescence Cell-Based Dose Response HTS to Identify Activators of 5'UTR Stem-Loop Driven Prion Protein mRNA Translation in H4 Neuroglioblastoma Cells. [Related pubchem assays: 1829 (Project Summary), 1814 (Primary HTS)]; assay type: functional; settings: Homo sapiens
[17] = Luminescence Cell-Based Dose Response to Identify Activators of Luciferase Translation or Activity in H4-C Neuroglioblastoma Cells. [Related pubchem assays: 1829 (Project Summary), 1814 (Primary HTS)]; assay type: functional
[18] = target: T4, Estrogen receptor (Homo sapiens, UniProt P03372);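 further: potency for inhibiting coactivator peptide recruitment to the receptor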
T4 sequence (P03372 whole entry): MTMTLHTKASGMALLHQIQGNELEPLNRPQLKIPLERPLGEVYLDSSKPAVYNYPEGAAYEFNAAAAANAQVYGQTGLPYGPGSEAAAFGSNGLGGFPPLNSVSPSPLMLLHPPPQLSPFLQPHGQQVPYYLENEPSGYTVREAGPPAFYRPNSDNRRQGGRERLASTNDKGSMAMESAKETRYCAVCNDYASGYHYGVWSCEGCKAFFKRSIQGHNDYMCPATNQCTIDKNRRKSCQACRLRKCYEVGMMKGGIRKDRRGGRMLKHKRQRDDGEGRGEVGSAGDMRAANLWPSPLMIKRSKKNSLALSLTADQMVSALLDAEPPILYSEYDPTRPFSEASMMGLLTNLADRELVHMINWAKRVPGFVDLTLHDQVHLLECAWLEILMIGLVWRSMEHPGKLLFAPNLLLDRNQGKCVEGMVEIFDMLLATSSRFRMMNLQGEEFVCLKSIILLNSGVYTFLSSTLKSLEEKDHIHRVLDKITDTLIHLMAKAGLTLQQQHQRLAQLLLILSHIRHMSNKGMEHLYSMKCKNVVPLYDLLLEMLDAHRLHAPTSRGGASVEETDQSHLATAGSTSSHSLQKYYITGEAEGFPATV

[19] = Luminescence Cell-Based Dose Confirmation to Identify Activators of 5'UTR Stem-Loop Driven Alpha-Synuclein mRNA Translation in H4 Neuroglioblastoma Cells. [Related pubchem assays: 1829 (Project Summary), 1814 (Primary HTS)]; assay type: functional
[20] = target: Trypsin (Sus scrofa, UniProt P00761); assay: porcine trypsin inhibitors, dose response, selectivity assay for Rce1 protease inhibitor project, biochemical, quenched peptide fluorescence, cherry-pick (AID 488789)
Sequence of Trypsin (P00761 whole entry): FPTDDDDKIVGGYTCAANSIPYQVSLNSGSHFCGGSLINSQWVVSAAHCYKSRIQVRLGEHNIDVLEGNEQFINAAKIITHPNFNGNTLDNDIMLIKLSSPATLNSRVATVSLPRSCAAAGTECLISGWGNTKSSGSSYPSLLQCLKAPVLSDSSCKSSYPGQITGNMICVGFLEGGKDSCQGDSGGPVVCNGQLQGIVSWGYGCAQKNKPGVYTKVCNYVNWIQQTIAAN

[21] = target: Beta-2 adrenergic receptor (Homo sapiens, UniProt P07550); assay: beta2AR agonists driving receptor internalization, dose response, cell-based, FAP fluorogen, flow cytometry, cherry pick 1 (AID 588763); assay type: functional
Sequence of Beta-2 adrenergic receptor (P07550 whole entry): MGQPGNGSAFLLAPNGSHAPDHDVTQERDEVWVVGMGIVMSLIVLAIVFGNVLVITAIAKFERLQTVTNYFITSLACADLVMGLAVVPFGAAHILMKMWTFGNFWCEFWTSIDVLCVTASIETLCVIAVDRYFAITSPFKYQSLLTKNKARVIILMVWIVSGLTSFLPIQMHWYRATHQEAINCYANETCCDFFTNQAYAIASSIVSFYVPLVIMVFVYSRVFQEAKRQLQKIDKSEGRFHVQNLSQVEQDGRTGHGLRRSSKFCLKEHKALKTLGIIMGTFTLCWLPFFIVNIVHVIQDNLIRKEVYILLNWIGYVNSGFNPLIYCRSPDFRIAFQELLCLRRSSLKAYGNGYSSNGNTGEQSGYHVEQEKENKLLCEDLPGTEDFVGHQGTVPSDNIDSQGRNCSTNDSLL

[22] = growth suppression of PTEN-null colon cells, dose response, cell-based, HCT116 PTEN knockout (AID 1047); assay type: functional;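 further: HCT116 colon tumor cells with PTEN knocked out; cells exposed to compound for 60 hours before readout; potency for loss of cell viability measured by luminescence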
[23] = growth suppression of beta-catenin-knockout colon cells, dose response, cell-based, HCT116, human colon tumor (AID 1045); assay type: functional;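 further: HCT116 colon tumor cells with beta catenin knocked out; cells exposed to compound for 60 hours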
[24] = Luminescence Cell-Based Dose Retest to Confirm Inhibitors of Cancer Stem Cells. [Related pubchem assays (depositor defined):AID2717, AID2721]; assay type: functional; settings: Homo sapiens
[25] = A Cell Based Secondary Assay To Explore Cytotoxicity of Compounds that Sensitize Mycobacterium Tuberculosis to Beta-Lactam Antibiotics.; assay type: functional

COc1ccnc2c1c(=O)n(Cc1ccc(Cl)cc1)c(=O)n2C
IC50 [1]: 4.03 µM (active) | IC50 [2]: 11.7 µM (active) | IC50 [3]: 8.22 µM (active)

COc1ccc(N(CCCN2C(=O)c3cccc4cccc(c34)C2=O)C(=O)c2cccnc2)cc1
EC50 [4]: > 50 µM (active) | EC50 [5]: 0.666 µM (active) | EC50 [6]: > 60 µM (not active)

COC(=O)N1[C@H](C)C=C[C@]1(Cc1ccccc1)C(=O)NCc1ccccn1
AC50 [7]: 3.98 µM (inconclusive)

CCCCn1c(N)c(C(=O)OCCOC)c2nc3ccccc3nc21
IC50 [8]: 38 µM (active)

O=C(c1ccc2c3c(cccc13)CC2)C1CCCN(Cc2ncc[nH]2)C1 (centres undefined)
EC50 [4]: > 50 µM (active)

C=C1CCC2C(CC2(C)C)C(=C)CC/C1=N/O (centres undefined) [5-HYDROXYIMINOISOCARYOPHYLLENE]
AC50 [7]: 31.6 µM (inconclusive)

COC(=O)Cc1c(C)nc2nc(-c3ccc(C)cc3)nn2c1O
IC50 [9]: > 50 µM (inactive)

CCOC(=O)c1cccc(Nc2nc(-c3cccnc3)nc3ccccc23)c1
CC50 [10]: 14 µM (active) | IC50 [1]: > 20 µM (inactive) | IC50 [2]: 14.5 µM (active) | IC50 [3]: 15.2 µM (active) | IC50 [11]: 24 µM (active)

CCCNC(=O)c1ccccc1NC(=O)c1ccccc1N(C)S(=O)(=O)c1ccc(C)cc1
EC50 [12]: > 59.6 µM (inactive) | EC50 [13]: > 59.6 µM (inactive)

Cc1ccc(N(CC(O)CN2C(=O)NC(C)(C)C2=O)S(=O)(=O)c2ccc(C)cc2)cc1 (centres undefined)
IC50 [9]: > 50 µM (inactive)

O=C(COC(=O)CC1CCCC1)Nc1cc2c(cc1Cl)C(=O)c1ccccc1C2=O
EC50 [14]: 2.27 µM (active) | EC50 [15]: < 0.1 µM (inconclusive) | EC50 [16]: 21.7 µM (active) | EC50 [17]: 0.438 µM (active) | IC50 [18]: 22.3 µM (active) | EC50 [19]: 0.497 µM (active)

Cc1ccc2cc(CN(C(=O)c3cccs3)c3ccccc3)c(O)nc2c1
IC50 [9]: > 50 µM (inactive)

COc1ccc(CSc2ccc(-c3nc4ccccn4c3NCc3ccccc3)cc2OC)cc1
AC50 [20]: 4.45 µM (active) | EC50 [21]: 1.32 µM (active)

CC1CCN(S(=O)(=O)c2ccc3c(c2)C(=NO)c2cc(S(=O)(=O)N4CCC(C)CC4)ccc2-3)CC1
EC50 [22]: 0.303 µM (active) | EC50 [23]: 0.265 µM (active) | AC50 [24]: 0.584 µM (active) | EC50 [12]: > 59.6 µM (inactive) | EC50 [13]: > 59.6 µM (inactive)

CCn1cnc2cc(NCc3ccc(Br)cc3)ccc21
EC50 [4]: > 50 µM (active)

O=C(/C=C/c1c(F)cccc1Cl)N1CCOCC1
EC50 [4]: > 50 µM (active)

C#CCOCCOCCOCCNc1nc(N2CCOCC2)nc(N2CCN(C(=O)[C@H](CCCCN)n3cc(CN)nn3)CC2)n1
IC50 [1]: > 20 µM (inactive) | IC50 [2]: 15.3 µM (active) | IC50 [3]: > 20 µM (inactive)

Cc1ccc(/C=N/NC(=O)c2cccc(S(=O)(=O)Nc3cccc(Cl)c3)c2)o1
IC50 [8]: 82.1 µM (active)

CCSc1nnc(NC(=O)C2Cc3ccccc3CN2C(=O)c2ccco2)s1 (centres undefined)
CC50 [25]: > 40 µM (active) | IC50 [18]: 7.47 µM (active)

COc1cc(/C=N/NC(=O)CSCc2ccc([N+](=O)[O-])cc2)cc(OC)c1OC
IC50 [1]: > 20 µM (inactive) | IC50 [2]: 4.56 µM (active) | IC50 [3]: 7.06 µM (active)
